Some results are limits rather than exact numbers.

The experiment deals with kidney bean gray mold fungus (Botrytis cinerea). Nature of the experiment: Test on kidney bean gray mold control, dipped flowers on detached leaves. Type of experiment: in vivo. To be noted: 168 h, 50 ppm active ingredient, kidney bean flowers (Nagauzura) dipped, then spore solution sprayed, 20° C., 7 days, lesion diameter, read-out: control efficacy. On the procedure:
The following test examples show the efficacy of the compounds of the present invention as active ingredients of various agents for controlling plant diseases. The control efficacy was determined by visual observation of the infested states of test plants, that is, degrees of legions and growth of colonies on leaves and stalks, when they were examined, in comparison with those of control plants.
Test on Kidney Bean Gray Mold Control
Flowers of kidney bean (variety: Nagauzura) grown in a flat vessel for culturing seedlings were cut, and dipped into a solution of an emulsifiable concentrate prepared for a compound of the present invention, diluted to a concentration of 50 ppm based on the active ingredient. After the dipping, the flowers were dried at room temperature. Then a spore solution of kidney bean gray mold fungus (Botrytis cinerea) was sprayed onto the flowers. The treated flowers were placed on leaves detached from healthy kidney bean plants, placed in a temperature-controlled room at 20° C. with high humidity and repeated lighting of 12-hour intervals, and incubated for 7 days. Diameters of the legions on the leaves were measured and compared with those of the control healthy leaves to determine the control efficacy.
Regarding `COc1ccnc(OC)c1CO/N=C/c1cc(C#N)cc(C)n1` [II-27, 4-cyano-6-methyl-2-pyridinecarboxyaldehyde O-[(2-,4-dimethoxy-3-pyridinyl)methyl]oxime], the pest or weed control at 50 ppm was at least 75%.
For `COc1ncnc(OC)c1CO/N=C(\C)c1cc(C)cc(C)n1` [II-17, 1-(4,6-dimethyl-2-pyridinyl)ethanone O-[(4,6-dimethoxy-5-pyrimidinyl)methyl]oxime], the pest or weed control at 50 ppm was at least 75%.
With `COc1nccc(C)c1CO/N=C/c1cc(C)cc(C)n1` [II-3, 4,6-dimethyl-2-pyridinecarboxyaldehyde O-[(2-methoxy-4-methyl-3-pyridinyl)methyl]oxime], the pest or weed control at 50 ppm is at least 75%.
As for `COc1ncnc(OC)c1CO/N=C/c1cc(C(F)(F)F)cc(C)n1` [II-36, 6-methyl-4-trifluoromethyl-2-pyridinecarboxyaldehyde O-[(4,6-dimethoxy-5-pyrimidinyl)methyl]oxime], the pest or weed control at 50 ppm was at least 75%.
The result for `COc1ccnc(OC)c1CO/N=C(\C)c1cc(C)cc(C)n1` [II-14, 1-(4,6-dimethyl-2-pyridinyl)ethanone O-[(2,4-dimethoxy-3-pyridinyl)methyl]oxime] reads at least 75%; that for `COc1ncnc(OC)c1CO/N=C/c1cc(Cl)cc(C)n1` [II-20, 4-chloro-6-methyl-2-pyridinecarboxyaldehyde O-[(4,6-dimethoxy-5-pyrimidinyl)methyl]oxime], at least 75%.
The result for `COc1nccc(C)c1CO/N=C/c1cc(C#N)cc(C)n1` [II-28, 4-cyano-6-methyl-2-pyridinecarboxyaldehyde O-[(2-methoxy-4-methyl-3-pyridinyl)methyl]oxime] reads at least 75%.
For `COc1ncnc(OC)c1CO/N=C/c1cc(C#N)cc(C)n1` [II-29, 4-cyano-6-methyl-2-pyridinecarboxyaldehyde O-[(4,6-dimethoxy-5-pyrimidinyl)methyl]oxime], the pest or weed control at 50 ppm is at least 75%.

Values taken from patent publication US20040116480A1, “Oxime ether compound and agricultural or horticultural bactericide” (priority 2001, published 2004).
